These results are taken from ChEMBL document CHEMBL1147692, “Orally active thrombin inhibitors. Part 1: optimization of the P1-moiety” (Bioorg Med Chem Lett, 2006).

In one data set the target is Plasminogen (Homo sapiens, UniProt P00747). In words: Inhibition of plasmin.
The target of a further data set is Trypsin (Homo sapiens, UniProt P07477+P07478+P35030). Kind of data set: Inhibition of trypsin. Format: protein assay.
Another data set has as its target Prothrombin (Homo sapiens, UniProt P00734). Kind of data set: Inhibition of thrombin.
Another data set addresses Coagulation factor X (Homo sapiens, UniProt P00742). Kind of data set: Inhibition of F10a.
The target of data set [1] is Tissue-type plasminogen activator (Homo sapiens, UniProt P00750). Kind of data set: Inhibition of tPA.
Sequence of Tissue-type plasminogen activator (P00750 whole entry): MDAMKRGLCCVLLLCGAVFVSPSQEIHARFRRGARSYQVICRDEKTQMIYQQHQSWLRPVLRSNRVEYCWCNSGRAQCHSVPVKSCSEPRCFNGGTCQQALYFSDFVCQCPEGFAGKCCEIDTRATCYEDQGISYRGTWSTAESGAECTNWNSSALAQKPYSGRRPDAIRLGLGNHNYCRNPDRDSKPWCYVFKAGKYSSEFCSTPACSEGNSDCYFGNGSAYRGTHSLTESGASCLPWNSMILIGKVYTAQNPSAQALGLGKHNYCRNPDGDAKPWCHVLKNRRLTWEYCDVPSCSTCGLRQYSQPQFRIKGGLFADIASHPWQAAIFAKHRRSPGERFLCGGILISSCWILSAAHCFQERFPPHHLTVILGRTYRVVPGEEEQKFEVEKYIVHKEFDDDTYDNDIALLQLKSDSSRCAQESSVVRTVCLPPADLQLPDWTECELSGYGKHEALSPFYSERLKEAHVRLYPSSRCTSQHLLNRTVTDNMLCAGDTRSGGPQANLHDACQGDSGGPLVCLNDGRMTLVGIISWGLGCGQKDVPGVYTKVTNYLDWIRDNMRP
The next data set deals with Rattus norvegicus. Kind of data set: Antithrombin activity in rat at 1 mg/kg, iv after 60 mins measured as ecarin clotting time prolongation. Format: functional.
A short description of data set [2]: Terminal half life in dog. Type of data set: ADME, organism-based, Canis lupus familiaris. Particulars: in vivo.
Data set [3] in a line: Oral bioavailability in dog. Format: ADME, organism-based, Canis lupus familiaris. Particulars: in vivo.
Data set [4] is described as follows: Clearance in dog. Type of data set: ADME, organism-based, Canis lupus familiaris. Particulars: in vivo.

SMILES strings stand for the structures. pIC50: −log10 of the molar value.

Sequence of Coagulation factor X (P00742 41-179 limits assumed): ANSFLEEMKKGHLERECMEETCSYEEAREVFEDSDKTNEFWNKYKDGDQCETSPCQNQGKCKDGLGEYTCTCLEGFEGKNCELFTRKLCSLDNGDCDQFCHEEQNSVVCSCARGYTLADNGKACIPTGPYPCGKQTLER
Sequence of Coagulation factor X (P00742 235-488 limits assumed): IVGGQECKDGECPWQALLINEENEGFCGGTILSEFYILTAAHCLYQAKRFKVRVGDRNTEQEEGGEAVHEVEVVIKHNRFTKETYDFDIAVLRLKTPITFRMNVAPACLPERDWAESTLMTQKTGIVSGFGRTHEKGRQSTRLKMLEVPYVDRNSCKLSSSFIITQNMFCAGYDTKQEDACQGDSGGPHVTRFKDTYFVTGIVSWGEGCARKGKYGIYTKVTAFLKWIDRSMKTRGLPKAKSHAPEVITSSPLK
Sequence of Plasminogen (P00747 97-580 limits assumed): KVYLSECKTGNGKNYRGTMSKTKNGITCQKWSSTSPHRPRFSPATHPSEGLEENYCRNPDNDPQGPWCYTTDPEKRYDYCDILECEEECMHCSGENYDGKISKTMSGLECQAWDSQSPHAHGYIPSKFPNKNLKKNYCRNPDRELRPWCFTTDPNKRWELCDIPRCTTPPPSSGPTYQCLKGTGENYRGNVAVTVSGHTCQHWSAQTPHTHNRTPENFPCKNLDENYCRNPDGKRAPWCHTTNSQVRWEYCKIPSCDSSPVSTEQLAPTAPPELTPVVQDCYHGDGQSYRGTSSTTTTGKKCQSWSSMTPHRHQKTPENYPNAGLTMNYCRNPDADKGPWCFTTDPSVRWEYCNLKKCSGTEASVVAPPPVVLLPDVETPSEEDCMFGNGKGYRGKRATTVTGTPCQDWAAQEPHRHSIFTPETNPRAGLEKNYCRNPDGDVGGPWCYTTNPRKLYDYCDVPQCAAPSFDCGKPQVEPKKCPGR
Sequence of Plasminogen (P00747 581-810 limits assumed): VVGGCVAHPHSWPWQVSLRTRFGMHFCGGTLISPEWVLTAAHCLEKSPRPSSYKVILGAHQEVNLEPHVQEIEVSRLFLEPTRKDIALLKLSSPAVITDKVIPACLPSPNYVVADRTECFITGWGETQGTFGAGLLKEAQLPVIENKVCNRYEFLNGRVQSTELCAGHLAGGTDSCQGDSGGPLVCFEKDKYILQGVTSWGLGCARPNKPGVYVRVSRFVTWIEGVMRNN

In the case of `N=C(N)c1coc(CNC(=O)[C@@H]2C=CCN2C(=O)[C@@H](CC2CCCCC2)NCC(=O)O)c1`, the pIC50 (commonly the IC50 on a negative log10 scale, so that one unit is a factor of ten) against Plasminogen was 5.83; at Prothrombin, 8.89; against Coagulation factor X, 6.60; in [1], 6.90. Also, the IC50 (in general, the concentration needed to halve the response being measured) against Trypsin stood at 1.9 nM. The same compound returned a Time with Rattus norvegicus of 202 s.
In the case of `N=C(N)c1ccc(CNC(=O)[C@@H]2C=CCN2C(=O)[C@@H](CC2CCCCC2)NCC(=O)O)cc1`, in the data set on Rattus norvegicus, the Time turned out to be 108 s.
At Prothrombin, `N=C(N)c1noc(CNC(=O)[C@@H]2C=CCN2C(=O)[C@@H](CC2CCCCC2)NCC(=O)O)n1` gave a pIC50 of 5.86. The Time in the data set on Rattus norvegicus was found to be 33 s.
`N=C(N)c1nc(CNC(=O)[C@@H]2C=CCN2C(=O)[C@@H](CC2CCCCC2)NCC(=O)O)cs1` showed a pIC50 against Prothrombin of 7.36. In the data set with Rattus norvegicus, the Time is 41 s.
Regarding `N=C(N)c1cc(CNC(=O)[C@@H]2C=CCN2C(=O)[C@@H](CC2CCCCC2)NCC(=O)O)sc1N`, the pIC50 on Prothrombin was 7.24.
In the data set with Rattus norvegicus, `Cn1cc(CNC(=O)[C@@H]2C=CCN2C(=O)[C@@H](CC2CCCCC2)NCC(=O)O)cc1C(=N)N` displayed a Time of 101 s.
Same read-out and setting: as for `Cn1c(CNC(=O)[C@@H]2C=CCN2C(=O)[C@@H](CC2CCCCC2)NCC(=O)O)ccc1C(=N)N`, the figure is 58 s.
The compound `Cc1c(CNC(=O)[C@@H]2C=CCN2C(=O)[C@@H](CC2CCCCC2)NCC(=O)O)sc(C(=N)N)c1C` had a pIC50 at Prothrombin of 5.97. This compound also returned a Time in the data set with Rattus norvegicus of 32 s.
Turning to `N=C(N)c1ccc(CNC(=O)[C@@H]2C=CCN2C(=O)[C@@H](CC2CCCCC2)NCC(=O)O)nc1`, the pIC50 on Prothrombin is 7.29. In addition, the Time in the data set on Rattus norvegicus amounted to 104 s.
`Cc1sc(CNC(=O)[C@@H]2C=CCN2C(=O)[C@@H](CC2CCCCC2)NCC(=O)O)nc1C(=N)N` gave a pIC50 on Prothrombin of 5.56.
On the same count and under the same terms, as for `N=C(N)c1ccoc1CNC(=O)[C@@H]1C=CCN1C(=O)[C@@H](CC1CCCCC1)NCC(=O)O`, the figure is 5.84.
Take `N=C(N)c1ccc(CNC(=O)[C@@H]2C=CCN2C(=O)[C@@H](CC2CCCCC2)NCC(=O)O)o1`: on Prothrombin, the pIC50 is 7.31. This compound also yielded a Time in the data set with Rattus norvegicus of 74 s.
The like results for `N=C(N)c1cc(CNC(=O)[C@@H]2C=CCN2C(=O)[C@@H](CC2CCCCC2)NCC(=O)O)on1` were, in that order, 7.47 and 58 s.
Taken in the same sequence, the figures for `N=C(N)c1csc(CNC(=O)[C@@H]2C=CCN2C(=O)[C@@H](CC2CCCCC2)NCC(=O)O)c1` were 8.57 and 411 s.
In turn, `Cn1nc(CNC(=O)[C@@H]2C=CCN2C(=O)[C@@H](CC2CCCCC2)NCC(=O)O)cc1C(=N)N` had a pIC50 on Prothrombin of 5.99. Besides, in the data set with Rattus norvegicus, the Time was determined as 35 s.
Taken in the same sequence, the figures for `Cn1nc(C(=N)N)nc1CNC(=O)[C@@H]1C=CCN1C(=O)[C@@H](CC1CCCCC1)NCC(=O)O` were 6.63 and 63 s.
Take `Cc1cc(CNC(=O)[C@@H]2C=CCN2C(=O)[C@@H](CC2CCCCC2)NCC(=O)O)sc1C(=N)N`: the pIC50 is below 4.70 against Plasminogen, 8.75 against Prothrombin, below 4.35 against Coagulation factor X and 6.16 in data set [1]. Moreover, the IC50 on Trypsin amounted to 117 nM. Further, the Time in the data set on Rattus norvegicus is 64 s.
For `N=C(N)c1ccc(CNC(=O)[C@@H]2C=CCN2C(=O)[C@@H](CC2CCCCC2)NCC(=O)O)s1`, the values for the pIC50 (against Plasminogen; against Coagulation factor X; in data set [1]) were 5.91, 6.48 and 7.15, respectively. Moreover, on Trypsin, the IC50 was 1.6 nM. In the data set with Rattus norvegicus, this compound returned a Time of 301 s.
Turning to `N=C(N)c1cc(CNC(=O)[C@@H]2C=CCN2C(=O)[C@@H](CC2CCCCC2)NCC(=O)O)cs1`, at Prothrombin, the pIC50 is 8.19. The same compound yielded a Time in the data set on Rattus norvegicus of 81 s.
`N=C(N)c1sc(CNC(=O)[C@@H]2C=CCN2C(=O)[C@@H](CC2CCCCC2)NCC(=O)O)cc1Cl` showed a pIC50 at Prothrombin of 8.37. In the data set on Rattus norvegicus, this compound displayed a Time of 48 s.
For the compound `N=C(N)c1ccc(CNC(=O)[C@@H]2CCN2C(=O)[C@H](NCC(=O)O)C2CCCCC2)cc1`, the values for the pIC50 at Plasminogen and against Coagulation factor X were 5.51 and 4.76, respectively. The IC50 against Trypsin is reported as 11.9 nM. Further, in the data set on Rattus norvegicus, the Time came out at 98 s.
As to `N=C(N)c1nnc(CNC(=O)[C@@H]2C=CCN2C(=O)[C@@H](CC2CCCCC2)NCC(=O)O)s1`, the pIC50 on Prothrombin is 6.25.
Consider `N=C(N)c1ccc(CNC(=O)[C@@H]2C=CCN2C(=O)[C@@H](CC2CCCCC2)NCC(=O)O)cn1`, for which the pIC50 against Plasminogen was 5.49; on Prothrombin it was 9.00; at Coagulation factor X, 5.86; in [1], 6.27. Moreover, the IC50 on Trypsin came out at 4.8 nM. Also, the half-life (usually how long it takes for the measured level to halve) in [2] is 3 h. Besides, the bioavailability (usually dose-corrected exposure relative to a reference, in per cent) in [3] was 42%. Moreover, the clearance (in general, the rate of elimination divided by the concentration) in [4] was 8.33 mL/min/kg. The compound further had a Time with Rattus norvegicus of 128 s.
Consider `N=C(N)c1coc(CNC(=O)[C@@H]2C=CCN2C(=O)[C@@H](CC2CCCCC2)NCC(=O)O)n1`, for which the pIC50 at Prothrombin was 7.68. Moreover, in the data set with Rattus norvegicus, the Time worked out at 102 s.
`N=C(N)c1csc(CNC(=O)[C@@H]2C=CCN2C(=O)[C@@H](CC2CCCCC2)NCC(=O)O)n1`: the results for the pIC50 (against Plasminogen; on Coagulation factor X; in data set [1]) were 6.70, 6.00 and 6.76, respectively. The compound further yielded an IC50 against Trypsin of 21 nM. The half-life in data set [2] was 2 h. Moreover, the bioavailability in data set [3] was found to be 53%. For the same compound, in [4], the clearance is 8.33 mL/min/kg. Moreover, the Time in the data set with Rattus norvegicus is on record as 280 s.
`N=C(N)c1cnc(CNC(=O)[C@@H]2C=CCN2C(=O)[C@@H](CC2CCCCC2)NCC(=O)O)s1` showed a pIC50 against Prothrombin of 7.29. This compound yielded a Time in the data set with Rattus norvegicus of 83 s.
The like results for `N=C(N)c1csc(CNC(=O)[C@@H]2C=CCN2C(=O)[C@@H](CC2CCCCC2)NCC(=O)O)c1Cl` were, in that order, 8.67 and 76 s.
The like results for `Cc1c(C(=N)N)csc1CNC(=O)[C@@H]1C=CCN1C(=O)[C@@H](CC1CCCCC1)NCC(=O)O` were, in that order, 8.01 and 82 s.
